Experiment [1] addresses T1, Replicative DNA helicase DnaB (Mycobacterium tuberculosis, UniProt P9WMR3).
T1 sequence (P9WMR3 whole entry): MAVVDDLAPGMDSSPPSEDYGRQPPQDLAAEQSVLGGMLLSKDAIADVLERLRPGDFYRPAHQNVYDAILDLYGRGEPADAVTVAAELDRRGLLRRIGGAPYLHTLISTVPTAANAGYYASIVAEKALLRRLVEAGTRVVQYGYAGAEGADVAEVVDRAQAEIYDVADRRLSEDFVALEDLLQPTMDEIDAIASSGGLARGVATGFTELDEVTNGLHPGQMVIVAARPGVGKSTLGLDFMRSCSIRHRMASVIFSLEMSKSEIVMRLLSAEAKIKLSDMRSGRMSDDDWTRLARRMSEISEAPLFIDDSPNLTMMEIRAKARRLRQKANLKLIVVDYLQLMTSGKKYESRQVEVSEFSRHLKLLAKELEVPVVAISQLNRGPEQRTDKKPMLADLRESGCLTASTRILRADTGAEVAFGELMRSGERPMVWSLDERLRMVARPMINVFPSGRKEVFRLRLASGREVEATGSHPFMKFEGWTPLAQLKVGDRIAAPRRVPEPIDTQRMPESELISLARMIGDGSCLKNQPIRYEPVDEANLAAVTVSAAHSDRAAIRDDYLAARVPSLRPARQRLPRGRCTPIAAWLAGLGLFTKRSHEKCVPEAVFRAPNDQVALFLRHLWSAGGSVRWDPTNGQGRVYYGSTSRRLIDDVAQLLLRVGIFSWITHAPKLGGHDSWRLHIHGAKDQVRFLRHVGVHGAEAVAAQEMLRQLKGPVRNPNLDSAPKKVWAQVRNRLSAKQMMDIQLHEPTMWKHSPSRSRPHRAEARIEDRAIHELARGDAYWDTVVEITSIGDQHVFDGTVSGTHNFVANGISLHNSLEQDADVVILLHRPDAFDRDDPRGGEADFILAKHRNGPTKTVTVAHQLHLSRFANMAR
As to the kind of experiment: DnaB intein splicing inhibitors, dose response, biochemical, cell-free fluorescence (AID 449749). In kind it is functional.

For experiment [2], the target named is T2, 1-phosphatidylinositol 4,5-bisphosphate phosphodiesterase gamma-1 (Homo sapiens, UniProt P19174).
T2 sequence (P19174 whole entry): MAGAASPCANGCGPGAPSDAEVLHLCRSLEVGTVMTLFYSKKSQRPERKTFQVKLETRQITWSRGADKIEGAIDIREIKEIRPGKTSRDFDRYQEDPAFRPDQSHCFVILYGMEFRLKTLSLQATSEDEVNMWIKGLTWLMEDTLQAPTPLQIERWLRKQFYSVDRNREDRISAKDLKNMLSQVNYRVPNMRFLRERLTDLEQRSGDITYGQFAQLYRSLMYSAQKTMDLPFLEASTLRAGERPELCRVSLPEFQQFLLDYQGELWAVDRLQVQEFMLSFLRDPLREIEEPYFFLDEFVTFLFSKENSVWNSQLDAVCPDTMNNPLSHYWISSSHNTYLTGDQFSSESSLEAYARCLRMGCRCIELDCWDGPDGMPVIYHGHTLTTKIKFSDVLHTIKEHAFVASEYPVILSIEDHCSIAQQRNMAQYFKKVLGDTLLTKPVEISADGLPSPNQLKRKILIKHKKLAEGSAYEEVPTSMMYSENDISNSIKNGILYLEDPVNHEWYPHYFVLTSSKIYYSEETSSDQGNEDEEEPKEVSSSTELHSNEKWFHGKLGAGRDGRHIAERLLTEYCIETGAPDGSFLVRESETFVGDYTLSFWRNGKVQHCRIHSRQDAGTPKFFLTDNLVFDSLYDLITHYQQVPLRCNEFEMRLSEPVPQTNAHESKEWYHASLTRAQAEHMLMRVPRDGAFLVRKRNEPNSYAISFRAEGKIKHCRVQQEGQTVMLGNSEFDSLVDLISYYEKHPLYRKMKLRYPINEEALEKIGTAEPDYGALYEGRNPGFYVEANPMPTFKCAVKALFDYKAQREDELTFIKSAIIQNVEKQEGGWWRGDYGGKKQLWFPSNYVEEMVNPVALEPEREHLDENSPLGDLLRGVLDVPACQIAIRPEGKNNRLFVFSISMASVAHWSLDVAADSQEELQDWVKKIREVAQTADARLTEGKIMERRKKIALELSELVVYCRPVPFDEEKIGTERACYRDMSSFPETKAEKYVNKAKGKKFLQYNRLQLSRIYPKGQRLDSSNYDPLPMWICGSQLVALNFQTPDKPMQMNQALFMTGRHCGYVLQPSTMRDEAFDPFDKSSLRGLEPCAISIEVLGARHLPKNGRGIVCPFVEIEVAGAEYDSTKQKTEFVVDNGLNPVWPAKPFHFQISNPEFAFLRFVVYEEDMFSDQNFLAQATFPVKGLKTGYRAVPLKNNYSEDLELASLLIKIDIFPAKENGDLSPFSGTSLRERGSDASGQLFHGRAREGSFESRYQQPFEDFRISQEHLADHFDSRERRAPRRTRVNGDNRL
Briefly: Counterscreen for inhibitors of phospholipase C isozymes (PLC-B3): Fluorescence-based biochemical high throughput dose response assay to identify inhibitors of phospholipase C isozymes (PLC-gamma1).

Active and inactive are the calls of the source.

As for `CCN(CC)CCN1C(=O)c2cccc3cc(N)cc(c23)C1=O`, the AC50 in experiment [1] is 0.272 µM (active).
As to `O=C(O)c1cccc(-n2cccc2/C=C2/NC(=O)N(c3ccc(Cl)cc3)C2=O)c1`, the IC50 in experiment [2] is > 122 µM (inactive).
As to `C=C1C(=O)O[C@@H]2C[C@@H](C)[C@@H]3C=CC(=O)[C@@]3(C)[C@@H](OC(=O)CC(=O)O[C@H]3[C@@H]4C(=C)C(=O)O[C@@H]4C[C@@H](C)[C@@H]4C=CC(=O)[C@]43C)[C@H]12`, the AC50 in experiment [1] was 111 µM (active).
With `O=S(=O)(O)c1cc(Cl)cc(N=Nc2ccc(O)cc2O)c1O`, the IC50 in experiment [2] is > 122 µM (inactive).
